Measurements from patent publication US11406624B2, “Pyrazolopyridine compounds and uses thereof” (Incyte Corporation, priority 2017, dated 2022).

Biological target: HPK1 (Homo sapiens (Human), UniProt Q92918)
Experiment: HPK1 Kinase Binding Assay
Details: LanthaScreen tracer 222 binding, active HPK1, one hour incubation at 25° C.
Description: A stock solution of 1 mM test compound was prepared in DMSO. The compound plate was prepared by 3-fold and 11-point serial dilutions. 0.1 μL of the compound in DMSO was transferred from the compound plate to the white 384 well polystyrene plates. The assay buffer contained 50 mM HEPES, pH 7.5, 0.01% Tween-20, 5 mM MgCl2, 0.01% BSA, and 5 mM DTT. 5 μl of 4 nM active HPK1 (SignalChem M23-11G) prepared in the buffer was added to the plate. The enzyme concentration given was based on the given stock concentration reported by the vender. 5 μl of 18 nM tracer 222 (ThermoFisher PV6121) and 4 nM LanthaScreen Eu-Anti GST antibody (ThermoFisher PV5595) were added. After one hour incubation at 25° C., the plates were read on a PHERAstar FS plate reader (BMG Labtech). Ki values were determined.

Sequence of HPK1 (Q92918 1-346): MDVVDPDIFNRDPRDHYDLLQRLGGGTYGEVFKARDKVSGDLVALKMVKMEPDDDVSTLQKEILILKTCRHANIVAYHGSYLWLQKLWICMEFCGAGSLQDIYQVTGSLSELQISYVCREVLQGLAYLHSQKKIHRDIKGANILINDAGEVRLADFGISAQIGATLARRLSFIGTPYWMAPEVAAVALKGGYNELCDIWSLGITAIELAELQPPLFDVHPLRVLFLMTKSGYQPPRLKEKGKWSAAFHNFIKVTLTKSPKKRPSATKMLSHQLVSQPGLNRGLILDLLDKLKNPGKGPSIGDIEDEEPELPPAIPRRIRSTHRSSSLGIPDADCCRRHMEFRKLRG

Row | Ki | SMILES
1 | ≤ 100 nM | CCCNc1ccc(C(=O)Nc2n[nH]c3cnc(-c4cnn(C)c4C)cc23)cc1 [Example 11, N-(5-(1,5-dimethyl-1H-pyrazol-4-yl)-1H-pyrazolo[3,4-c]pyridin-3-yl)-4-(propylamino)benzamide]
2 | ≤ 100 nM | CCOC(=O)N1CCN(c2ccc(C(=O)Nc3n[nH]c4cnc(-c5cnccc5C)cc34)cc2)CC1 [Example 3, Ethyl 4-(4-(5-(4-methylpyridin-3-yl)-1H-pyrazolo[3,4-c]pyridin-3-ylcarbamoyl)phenyl)piperazine-1-carboxylate]
3 | ≤ 100 nM | COC1CCN(c2ccc(C(=O)Nc3n[nH]c4cnc(-c5cnccc5C)cc34)cc2)CC1 [Example 4, 4-(4-Methoxypiperidin-1-yl)-N-(5-(4-methylpyridin-3-yl)-1H-pyrazolo[3,4-c]pyridin-3-yl)benzamide]
4 | ≤ 100 nM | COCCNc1ccc(C(=O)Nc2n[nH]c3cnc(-c4cnn(C)c4C)cc23)cc1 [Example 12, N-(5-(1,5-dimethyl-1H-pyrazol-4-yl)-1H-pyrazolo[3,4-c]pyridin-3-yl)-4-(2-methoxyethylamino)benzamide]
5 | ≤ 100 nM | Cc1c(-c2cc3c(NC(=O)c4ccc(N5CCN(C)CC5)cc4)n[nH]c3cn2)cnn1C [Example 7, N-(5-(1,5-dimethyl-1H-pyrazol-4-yl)-1H-pyrazolo[3,4-c]pyridin-3-yl)-4-(4-methylpiperazin-1-yl)benzamide]
6 | ≤ 100 nM | Cc1c(-c2cc3c(NC(=O)c4ccc(N5CCOCC5)cc4)n[nH]c3cn2)cnn1C [Example 6, N-(5-(1,5-dimethyl-1H-pyrazol-4-yl)-1H-pyrazolo[3,4-c]pyridin-3-yl)-4-morpholinobenzamide]
7 | ≤ 100 nM | Cc1c(-c2cc3c(NC(=O)c4ccc(N5CCC(F)(F)C5)cc4)n[nH]c3cn2)cnn1C [Example 13, 4-(3,3-Difluoropyrrolidin-1-yl)-N-(5-(1,5-dimethyl-1H-pyrazol-4-yl)-1H-pyrazolo[3,4-c]pyridin-3-yl)benzamide]
8 | ≤ 100 nM | COc1ccncc1-c1cc2c(C(=O)Nc3ccc(N4CCN(C)CC4)cc3)n[nH]c2cn1 [Example 16, 5-(4-Methoxypyridin-3-yl)-N-(4-(4-methylpiperazin-1-yl)phenyl)-1H-pyrazolo[3,4-c]pyridine-3-carboxamide]
9 | ≤ 100 nM | CCOC(=O)N1CCN(c2ccc(C(=O)Nc3n[nH]c4cnc(-c5cnn(C)c5C)cc34)cc2)CC1 [Example 8, Ethyl 4-(4-(5-(1,5-dimethyl-1H-pyrazol-4-yl)-1H-pyrazolo[3,4-c]pyridin-3-ylcarbamoyl)phenyl)piperazine-1-carboxylate]
10 | ≤ 100 nM | Cc1ccncc1-c1cc2c(NC(=O)c3ccc(N4CCOCC4)cc3)n[nH]c2cn1 [Example 1, N-(5-(4-methylpyridin-3-yl)-1H-pyrazolo[3,4-c]pyridin-3-yl)-4-morpholinobenzamide]
11 | ≤ 100 nM | COC1CCN(c2ccc(C(=O)Nc3n[nH]c4cnc(-c5cnn(C)c5C)cc34)cc2)CC1 [Example 9, N-(5-(1,5-dimethyl-1H-pyrazol-4-yl)-1H-pyrazolo[3,4-c]pyridin-3-yl)-4-(4-methoxypiperidin-1-yl)benzamide]
12 | ≤ 100 nM | Cc1ccncc1-c1cc2c(NC(=O)c3ccc(N4CCCC(N)C4)cc3)n[nH]c2cn1 (stereo not shown) [Example 5, 4-(3-Aminopiperidin-1-yl)-N-(5-(4-methylpyridin-3-yl)-1H-pyrazolo[3,4-c]pyridin-3-yl)benzamide]
13 | ≤ 100 nM | Cc1ccncc1-c1cc2c(NC(=O)c3ccc(N4CCN(C)CC4)cc3)n[nH]c2cn1 [Example 2, 4-(4-Methylpiperazin-1-yl)-N-(5-(4-methylpyridin-3-yl)-1H-pyrazolo[3,4-c]pyridin-3-yl)benzamide]
14 | ≤ 100 nM | COc1ccncc1-c1cc2c(NC(=O)c3ccc(N4CCN(C)CC4)cc3)n[nH]c2cn1 [Example 14, N-(5-(4-methoxypyridin-3-yl)-1H-pyrazolo[3,4-c]pyridin-3-yl)-4-(4-methylpiperazin-1-yl)benzamide]
15 | ≤ 100 nM | COC1CCCN(c2ccc(C(=O)Nc3n[nH]c4cnc(-c5cnn(C)c5C)cc34)cc2)C1 (stereo not shown) [Example 10, N-(5-(1,5-dimethyl-1H-pyrazol-4-yl)-1H-pyrazolo[3,4-c]pyridin-3-yl)-4-(3-methoxypiperidin-1-yl)benzamide]
16 | ≤ 100 nM | Cc1ccncc1-c1cc2c(C(=O)Nc3ccc(N4CCN(C)CC4)cc3)n[nH]c2cn1 [Example 15, N-(4-(4-methylpiperazin-1-yl)phenyl)-5-(4-methylpyridin-3-yl)-1H-pyrazolo[3,4-c]pyridine-3-carboxamide]
